In US20240189263A1, “DERIVATIZED C60 MOLECULES AND METHODS AND MATERIALS FOR USING DERIVATIZED C60 MOLECULES TO REDUCE RADIATION INJURY” (Mayo Foundation for Medical Education and Research, priority 2021, published 2024):

Assays:
Format in all cases: cell-based
N2A cells = assay: ROS by H2-DCFDA probe after proton irradiation, N2A; conditions: 50 μM, positive control
Text: (§1) Cell lines were irradiated using pencil beam scanning (PBS) proton beams produced by IBA ProteusOne (Ion Beam Applications, Louvain-la-Neuve, Belgium). Single layer mono-energy 227 MeV pencil beams with uniform spacing of 0.25 cm between each spot were used to create a large field size with uniform dose distribution (±2%) that encompassed all sample wells containing the cells. A fixed source to surface distance (SSD) setup and gantry at 180 degrees was used to delivery 0.5, 1, 2, 4, and 6 Gray (Gy) dose of ionizing radiation to cells. The cells were place at an 8 cm depth, with a linear energy transfer (LET) of approximately 1.7 keV/μm, using solid water slabs as a buildup. […] The monitor units needed to deliver the intended dose were calculated using the measure dose/MU values.
(§2) Post radiation, 2′,7′-dichlorodihydrofluorescein diacetate (H2-DCFDA) probes were used to measure the level of reactive oxygen species (ROS) post-proton radiation (1 Gy, 230 MeV proton beam). […] A fluorescence microplate reader (SpectraMax M5, Molecular Devices Corporation, California, USA) was used to detect the generation of fluorescent DCF molecules with an excitation filter of 485 nm and an emission filter of 525 nm, with a 515 nm cutoff filter. […] Following irradiation, the cells were transported back for plate reading, 30 minutes post radiation.

HUVEC cells = assay: ROS by H2-DCFDA probe after proton irradiation, HUVEC; conditions: 50 μM, positive control
Text: as §1, §2

NIH3T3 cells = assay: ROS by H2-DCFDA probe after proton irradiation, NIH3T3; conditions: NIH3T3, 50 μM, positive control
Text: as §1, §2

HepG2 cells = assay: ROS by H2-DCFDA probe after proton irradiation, HepG2; conditions: control HepG2 cells, 50 μM, positive control
Text: as §1, §2

Measured: ROS (H2-DCFDA fluorescence)

CC(=O)N[C@@H](CS)C(=O)O [NAC, N-acetyl cysteine, reference compound]
decrease in ROS: all assays above
